Assay results published in US7507727B2, “Substituted quinobenzoxazine analogs and methods of using thereof” (Cylene Pharmaceuticals, Inc., priority 2003, dated 2009).

Target: c-Myc template DNA (c-myc quadruplex)
Experiment: Quadruplex binding / stop assay (Taq polymerase arrest, capillary electrophoresis)
Conditions: read-out: S DATA; Table 1D, stop assay data

| IC50 [µM] | SMILES |
| --- | --- |
| > 15 | CN(C)CCCCNc1ccc2c(=O)c(C(=O)NCCCN3CCOCC3)cn3c2c1Oc1cc2ccccc2cc1-3 [compound 1542] |
| 3.2 | CC(=O)N1CCN(c2c(F)cc3c(=O)c(C(=O)NCCN4CCCC4)cn4c3c2Oc2cc(Cl)ccc2-4)CC1 [compound 1812] |
| > 15 | NC1CCN(C(=O)c2cn3c4c(c(N5CCC(N)C5)c(F)cc4c2=O)Oc2ccccc2-3)C1 (stereo not shown) [compound 1622] |
| 1.75 | CN1CCCC1CCNC(=O)c1cn2c3c(c(N(C)C4CCN(Cc5ccccc5)CC4)c(F)cc3c1=O)Oc1cc3ccccc3cc1-2 (stereo not shown) [compound 1487] |
| 1.85 | CN1CCCC1CCNC(=O)c1cn2c3c(c(SCCc4cnccn4)c(F)cc3c1=O)Oc1cc3ccccc3cc1-2 (stereo not shown) [compound 1760] |
| 1.75 | CC1CCCC(C)N1CCCNc1c(F)cc2c(=O)c(C(=O)NCCC3CCCN3C)cn3c2c1Oc1cc2ccccc2cc1-3 (stereo not shown) [compound 1687] |
| > 15 | NCCCCNC(=O)c1cn2c3c(c(NCCN4CCOCC4)c(F)cc3c1=O)Oc1ccccc1-2 [compound 1611] |
| > 15 | O=C(NCCCN1CCOCC1)c1cn2c3c(c(NCCCN4CCOCC4)c(F)cc3c1=O)Oc1ccccc1-2 [compound 1560] |
| > 15 | CC(C)OCCCNC(=O)c1cn2c3c(c(N4CCC(N)C4)c(F)cc3c1=O)Oc1cc3ccccc3cc1-2 (stereo not shown) [compound 1710] |
| 0.75 | CN1CCCC1CCNC(=O)c1cn2c3c(c(NCC4CCN(C(=O)OC(C)(C)C)C4)c(F)cc3c1=O)Oc1cc3ccccc3cc1-2 (stereo not shown) [compound 1506] |
| 1.75 | COc1ccc2[nH]cc(CCNc3c(F)cc4c(=O)c(C(=O)NCCC5CCCN5C)cn5c4c3Oc3cc4ccccc4cc3-5)c2c1 (stereo not shown) [compound 1671] |
| > 15 | CN(C)CC(C)(C)CNC(=O)c1cn2c3c(c(NCCN4CCCC4)c(F)cc3c1=O)Oc1ccccc1-2 [compound 1600] |
| > 15 | N=C(N)NCCCCNC(=O)c1cn2c3c(c(NCCN4CCOCC4)c(F)cc3c1=O)Oc1ccccc1-2 [compound 1634] |
| 1.75 | CN1CCCC1CCNC(=O)c1cn2c3c(c(N4CCC(C#N)(c5ccccc5)CC4)c(F)cc3c1=O)Oc1cc3ccccc3cc1-2 (stereo not shown) [compound 1491] |
| 1.75 | CC(O)CNc1c(F)cc2c(=O)c(C(=O)NCCC3CCCN3C)cn3c2c1Oc1cc2ccccc2cc1-3 (stereo not shown) [compound 1656] |
| > 15 | CN1CCN(CCCNc2c(F)cc3c(=O)c(C(=O)N4CCC(N)C4)cn4c3c2Oc2ccccc2-4)CC1 (stereo not shown) [compound 1628] |
| 0.75 | CN1CCCC1CCNC(=O)c1cn2c3c(c(NCCN4CCCC4)ccc3c1=O)Oc1cc3ccccc3cc1-2 (stereo not shown) [compound 1517] |
| 1.75 | CCN(CC)C(=O)C1CCCN(c2c(F)cc3c(=O)c(C(=O)NCCC4CCCN4C)cn4c3c2Oc2cc3ccccc3cc2-4)C1 (stereo not shown) [compound 1479] |
| 3 | CN1CCCC1CCNC(=O)c1cn2c3c(c(NC[C@H]4CCCO4)c(F)cc3c1=O)Oc1cc3ccccc3cc1-2 (stereo partly shown) [compound 1736] |
| > 15 | CC(C)N1CCN(c2c(F)cc3c(=O)c(C(=O)NCCC4CCCN4C)cn4c3c2Oc2ccccc2-4)CC1 (stereo not shown) [compound 1565] |
| > 15 | CN(C)c1cccc(CNC(=O)c2cn3c4c(c(N5CCC(N)C5)c(F)cc4c2=O)Oc2cc4ccccc4cc2-3)c1 (stereo not shown) [compound 1714] |
| > 15 | NC1CCN(c2c(F)cc3c(=O)c(C(=O)NCC4CCCO4)cn4c3c2Oc2cc3ccccc3cc2-4)C1 (stereo not shown) [compound 1693] |

Same assay, conditions: read-out: Stop Data c-Myc μM; concentration at which 50% of the DNA was arrested (arrested:full-length 1:1)

| SMILES | IC50 [µM] |
| --- | --- |
| CC(C)(C)OC(=O)N[C@H]1CCN(c2c(F)cc3c(=O)c(C(=O)NCCN4CCOCC4)cn4c5cc6c(cc5oc2c34)c(=O)c2ccccc26)C1 [compound 208] | 1.75 |
| O=C(NCCN1CCOCC1)c1cn2c3c(c(NCCCN4CCOCC4)c(F)cc3c1=O)Oc1cc3ccccc3cc1-2 [compound 48] | 2.5 |
| O=C(O)c1cn2c3c(c(NCCCN4CCOCC4)c(F)cc3c1=O)Oc1cc3c(cc1-2)-c1ccccc1C3 [compound 6] | 1.75 |
| CN(C)CCCCNC(=O)c1cn2c3c(c(N4CC[C@@H](N)C4)c(F)cc3c1=O)Oc1c-2ccc2ccccc12 [compound 156] | 1.75 |
| CN(C)CCCCNCCC(=O)N[C@@H]1CCN(c2c(F)cc3c(=O)c(C(=O)N4CCOCC4)cn4c3c2Oc2cc3c(cc2-4)oc2ccccc23)C1 [compound 177] | 1.75 |
| CN(C)CCCCNC(=O)c1cn2c3c(c(NCCCN4CCN(C)CC4)c(F)cc3c1=O)Oc1cc3c(cc1-2)oc1ccccc13 [compound 153] | 1.75 |
| CC(C)(C)OC(=O)NC1CCN(c2c(F)c(N)c3c(=O)c(C(=O)O)cn4c3c2Oc2cc3ccccc3cc2-4)C1 (stereo not shown) [compound 15] | 1.75 |
| CC(C)(C)OC(=O)NC1CCN(c2c(F)c(N)c3c(=O)c(C(=O)NCCN4CCOCC4)cn4c3c2Oc2cc3ccccc3cc2-4)C1 (stereo not shown) [compound 229] | 1.75 |
| CN1CCCC1CCNC(=O)c1cn2c3c(c(NCCCN4CCOCC4)ccc3c1=O)Oc1cc3ccccc3cc1-2 (stereo not shown) [compound 273] | 1.75 |
| CN1CCN(C(=O)c2cn3c4c(c(N5CC[C@@H](N)C5)c(F)cc4c2=O)Oc2c-3ccc3ccccc23)CC1 [compound 81] | 2.5 |
| CC(C)(C)OC(=O)N[C@@H]1CCN(C(=O)c2cn3c4c(c(NCCN5CCCC5)c(F)cc4c2=O)Oc2cc4ccccc4cc2-3)C1 [compound 72] | 2.5 |
| CN1CCCC1CCNc1ccc2c(=O)c(C(=O)NC3CC(C)(C)NC(C)(C)C3)cn3c2c1Oc1cc2ccccc2cc1-3 (stereo not shown) [compound 270] | 1.75 |
| Nc1c(F)c(NCCCN2CCOCC2)c2c3c1c(=O)c(C(=O)NCCN1CCOCC1)cn3-c1cc3ccccc3cc1O2 [compound 221] | 1.75 |
| CCCCN(CCCC)CCCNc1c(F)cc2c(=O)c(C(=O)N3CCOCC3)cn3c2c1Oc1cc2ccccc2cc1-3 [compound 45] | 2.5 |
| CN(C)CC(C)(C)CNC(=O)c1cn2c3c(c(N4CCC(N)C4)c(F)cc3c1=O)Oc1cc3ccccc3cc1-2 (stereo not shown) [compound 329] | 1 |
| CN1CCN(CCCNc2c(F)cc3c(=O)c(C(=O)NCCN4CCCC4)cn4c3c2Oc2cc3c(cc2-4)oc2ccccc23)CC1 [compound 152] | 1.75 |
| C[C@H](O)CNc1c(F)cc2c(=O)c(C(=O)NCCC3CCCN3C)cn3c2c1Oc1cc2ccccc2cc1-3 (stereo partly shown) [compound 294] | 1.75 |

| SMILES | IC50 [µM] |
| --- | --- |
| CN(C)CC(C)(C)CNC(=O)c1cn2c3c(c(NCCCN4CCOCC4)c(F)cc3c1=O)Oc1cc3ccccc3cc1-2 [compound 332] | 1 |
| N[C@@H]1CCN(c2c(F)cc3c(=O)c(C(=O)N4CCOCC4)cn4c3c2Oc2c-4ccc3ccccc23)C1 [compound 79] | 2.5 |
| Nc1c(F)c(NCCCN2CCOCC2)c2c3c1c(=O)c(C(=O)N1CCOCC1)cn3-c1cc3ccccc3cc1O2 [compound 222] | 1.75 |
| O=C(CCN1CCCCC1)N[C@@H]1CCN(c2c(F)cc3c(=O)c(C(=O)NCCN4CCOCC4)cn4c3c2Oc2cc3c(cc2-4)oc2ccccc23)C1 [compound 319] | 1 |
| O=C(NCCCN1CCOCC1)c1cn2c3c(c(NCCN4CCCC4)c(F)cc3c1=O)Oc1cc3c(cc1-2)oc1ccccc13 [compound 160] | 1.75 |
| O=C(O)c1cn2c3c(c(NCCN4CCCC4)c(F)cc3c1=O)Oc1cc3ccccc3cc1-2 [compound 2] | 2.5 |
| Nc1ccc2[nH]c3cc4oc5c(NCCN6CCCC6)c(F)cc6c(=O)c(C(=O)O)cn(c4cc3oc2c1)c56 [compound 9] | 1.75 |
| CN(C)c1ccc(NC(=O)c2cn3c4c(c(NCCC5CCCN5C)c(F)cc4c2=O)Oc2c-3ccc3ccccc23)cc1 (stereo not shown) [compound 136] | 1.75 |
| CN1CCCC1CCNC(=O)c1cn2c3c(c(NC4CCN(Cc5ccccc5)CC4)c(F)cc3c1=O)Oc1cc3ccccc3cc1-2 (stereo not shown) [compound 258] | 1.75 |
| CC1CCCN(CCCNc2c(F)cc3c(=O)c(C(=O)NCCC4CCCN4C)cn4c3c2Oc2cc3ccccc3cc2-4)C1 (stereo not shown) [compound 295] | 1.75 |
| N=C(N)NCCCNC(=O)c1cn2c3c(c(N4CC5CCCNC5C4)c(F)cc3c1=O)Oc1cc3ccccc3cc1-2 (stereo not shown) [compound 327] | 1 |
| O=C(NCCCN1CCOCC1)c1cn2c3c(c(NCCN4CCOCC4)c(F)cc3c1=O)Oc1cc3ccccc3cc1-2 [compound 53] | 2.5 |
| CN1CCN(CCCNc2c(F)cc3c(=O)c(C(=O)N4CC[C@@H](NC(=O)OC(C)(C)C)C4)cn4c3c2Oc2cc3ccccc3cc2-4)CC1 [compound 61] | 2.5 |
| CN(C)CCCCNC(=O)c1cn2c3c(c(N4CC[C@@H](NC(=O)OC(C)(C)C)C4)c(F)cc3c1=O)Oc1cc3ccccc3cc1-2 [compound 66] | 2.5 |
| O=C(NCCCN1CCOCC1)c1cn2c3cc4c(cc3oc3c(NCCCN5CCOCC5)c(F)cc(c1=O)c32)c(=O)c1ccccc14 [compound 203] | 1.75 |
| CC1(C)CC(NC(=O)c2cn3c4c(c(N5CCC(NC(=O)OC(C)(C)C)C5)c(F)cc4c2=O)Oc2cc4ccccc4cc2-3)CC(C)(C)N1 (stereo not shown) [compound 182] | 1.75 |

Other lines, results leading:

| IC50 [µM] | SMILES |
| --- | --- |
| 0.9 | CN1CCN(c2c(F)cc3c(=O)c(C(=O)NCCC4CCCN4C)cn4c5cc6c(=O)c7ccccc7c(=O)c6cc5oc2c34)CC1 (stereo not shown) [compound 351] |
| 0.64 | N=C(N)NCCNC(=O)c1cn2c3c(c(N4CC5CCCNC5C4)c(F)cc3c1=O)Oc1cc3ccccc3cc1-2 (stereo not shown) [compound 471] |
| 0.75 | CN1CCCC1CCNC(=O)c1cn2c3c(c(C4C[C@@H](N)[C@H](c5ccccc5)C4)c(F)cc3c1=O)Oc1cc3ccccc3cc1-2 (stereo partly shown) [compound 458] |
| 1 | N=C(N)NCCCNC(=O)c1cn2c3c(c(NCCN4CCCC4)c(F)cc3c1=O)Oc1cc3ccccc3cc1-2 [compound 333] |
| 0.5 | CN(C)CCCCNC(=O)c1cn2c3cc4c(cc3oc3c(NCCN5CCOCC5)c(F)cc(c1=O)c32)c(=O)c1ccccc14 [compound 490] |
| 1 | CN1CCCC1CCNC(=O)c1cn2c3c(c(NCCCn4ccnc4)c(F)cc3c1=O)Oc1cc3ccccc3cc1-2 (stereo not shown) [compound 335] |
| 0.5 | CN1CCCC1CCNc1c(F)cc2c(=O)c(C(=O)NCCN3CCCC3)cn3c2c1Oc1cc2ccccc2cc1-3 (stereo not shown) [compound 488] |
| 0.75 | CN1CCN(CCCNc2ccc3c(=O)c(C(=O)NCCN4CCCC4)cn4c3c2Oc2cc3ccccc3cc2-4)CC1 [compound 454] |
| 0.75 | CN1CCN(CCCNc2c(F)cc3c(=O)c(C(=O)NCCN4CCCC4)cn4c3c2Oc2cc3ccccc3cc2-4)CC1 [compound 395] |
